From US10596162B2 (WYETH LLC, priority 2005, dated 2020)

Columns and labels:
NCI-H1650 cells = assay: Generation of drug-resistant NCI-H1650 colonies; format: cell-based; conditions: for generation of drug-resistant clones in vitro: NCI-H1650, irreversible inhibitors at concentrations above 10 μM, even after ethyl methane sulfonate mutagenesis
[1] = test system: EGFR autophosphorylation (Y1068), AKT and MAPK phosphorylation in NCI-H1650 cells; assay: Immunoblotting of EGFR signaling in parental cells; format: cell-based; conditions: delE746-A750 EGFR
Procedure: Viable cells were counted 72 h after treatment with double-stranded RNA and are shown as a fraction relative to cells treated with nonspecific siRNA, with standard deviations based on triplicate samples. […] Rhodamine-tagged EGF is used to label EGFR at 5 and 20 rain, after addition of ligand. […] (Zeiss microscope, ×63 magnification).
(§1) Immunoblotting and Signaling Studies. […] Lysates were prepared in 2× gel loading buffer, sonicated, boiled, and then separated by 10% SDS/PAGE, followed by electrotransfer to polyvinylidene fluoride (PVDF) membranes, and immunoblotting. Antibodies used were phospho-EGFR Y1068 and phospho-mitogen-activated protein kinase (MAPK) (Cell Signaling Technology, Beverly, Mass.), phospho-AKT (BioSource International, Camarillo, Calif.), and total EGFR, MAPK, AKT, and tubulin (Santa Cruz Biotechnology).

[2] = test system: NCI-H1650 cells (delE746-A750 EGFR); assay: Proliferation/cell killing of bronchoalveolar cancer cell line, crystal violet staining; conditions: NCI-H1650 vs NCI-H1666
[3] = test system: EGFR autophosphorylation, AKT and MAPK phosphorylation in NCI-H1975 cells (L858R and T790M EGFR); assay: Immunoblotting of EGFR signaling in T790M cell line; format: cell-based
Procedure: Total EGFR, AKT, and MAPK are shown as loading controls.
as §1

ERBB2 = ERBB2 (Homo sapiens, UniProt P04626); conditions: read-out: IC50 for ERBB2; cited from earlier work
ERBB2, sequence (P04626 23-1255): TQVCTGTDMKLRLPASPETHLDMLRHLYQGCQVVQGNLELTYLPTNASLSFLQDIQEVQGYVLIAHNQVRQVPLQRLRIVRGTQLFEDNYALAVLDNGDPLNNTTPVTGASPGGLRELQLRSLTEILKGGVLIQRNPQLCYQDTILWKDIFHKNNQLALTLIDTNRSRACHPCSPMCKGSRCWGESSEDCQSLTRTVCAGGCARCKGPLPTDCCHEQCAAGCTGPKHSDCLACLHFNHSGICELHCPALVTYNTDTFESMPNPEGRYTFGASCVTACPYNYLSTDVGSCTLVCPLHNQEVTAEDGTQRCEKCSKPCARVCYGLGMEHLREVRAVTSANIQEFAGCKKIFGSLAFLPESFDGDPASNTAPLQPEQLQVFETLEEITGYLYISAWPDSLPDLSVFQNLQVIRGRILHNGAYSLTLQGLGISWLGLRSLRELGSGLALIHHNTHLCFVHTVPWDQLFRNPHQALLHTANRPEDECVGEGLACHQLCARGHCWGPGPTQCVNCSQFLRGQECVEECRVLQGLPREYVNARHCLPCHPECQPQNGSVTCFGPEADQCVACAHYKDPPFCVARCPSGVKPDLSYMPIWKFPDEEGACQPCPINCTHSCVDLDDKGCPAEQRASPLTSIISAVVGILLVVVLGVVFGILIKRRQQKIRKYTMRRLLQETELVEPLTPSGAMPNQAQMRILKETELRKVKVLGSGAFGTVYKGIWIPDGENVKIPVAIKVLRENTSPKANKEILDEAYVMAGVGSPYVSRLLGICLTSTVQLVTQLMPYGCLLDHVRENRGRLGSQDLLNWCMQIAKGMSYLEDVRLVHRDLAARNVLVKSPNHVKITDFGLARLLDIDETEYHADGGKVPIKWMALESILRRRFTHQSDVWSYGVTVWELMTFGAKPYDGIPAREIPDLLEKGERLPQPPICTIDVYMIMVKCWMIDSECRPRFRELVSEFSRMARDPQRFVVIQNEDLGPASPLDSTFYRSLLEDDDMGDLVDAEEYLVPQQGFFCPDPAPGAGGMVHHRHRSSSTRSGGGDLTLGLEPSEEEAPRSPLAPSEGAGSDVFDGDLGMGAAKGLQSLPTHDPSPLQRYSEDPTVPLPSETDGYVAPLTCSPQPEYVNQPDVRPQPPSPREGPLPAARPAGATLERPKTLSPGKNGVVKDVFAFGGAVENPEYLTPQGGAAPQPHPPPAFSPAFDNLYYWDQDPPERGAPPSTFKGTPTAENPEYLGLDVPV

| Compound | generation of drug-resistant clones in vitro (NCI-H1650 cells) | effectiveness relative to gefitinib in suppressing EGFR autophosphorylation (Y1068), AKT and MAPK phosphorylation [1] [fold] | killing of NSCLC cells harboring an EGFR mutation compared with cells expressing wild-type receptor [2] | suppression of ligand-induced EGFR autophosphorylation and downstream AKT and MAPK phosphorylation [3] | frequency of drug-resistant colonies (NCI-H1650 cells; 20 μM gefitinib, irrespective of mutagen treatment) | IC50 (ERBB2) [µM] |
| --- | --- | --- | --- | --- | --- | --- |
| CCOc1cc2ncc(C#N)c(Nc3ccc(OCc4cccc(F)c4)c(Cl)c3)c2cc1NC(=O)/C=C/CN(C)C [HKI-357] | not readily generated | 10 | increased cell killing | considerably more effective than gefitinib |  |  |
| COc1cc2ncnc(Nc3ccc(F)c(Cl)c3)c2cc1OCCCN1CCOCC1 [gefitinib, Gefitinib, reference compound] | readily generated |  |  |  | ≈ 10^−5 |  |
| CCOc1cc2ncc(C#N)c(Nc3ccc(F)c(Cl)c3)c2cc1NC(=O)/C=C/CN(C)C [EKB-569] | not readily generated |  | increased cell killing |  |  | 1.3 |
